{"source": "patent US8460932B2", "about": "“Method of treating a disorder by suicide gene therapy” (priority 1999, dated 2013)", "tested_on": "brains of rodents", "assay": "Expression, distribution and longevity of transgene in brain after intrastriatal vector injection (immunohistochemistry)", "assay_type": "in vivo, Lewis rat", "details": "GCV 25 mg/kg i.p. twice daily for 7 days vs saline after RAd 128; 1 month to 1 year", "procedure": "UK. […] Antibodies were diluted in 1% NHS in TBS.\nGroups of animals were then perfused 1 month, 3 months, 5 months, or 12 months later. Animals were perfusion-fixed and brains were cut in serial sections.\nTo assess the effects of HSV-1 TK on the expression another transgene, lacZ, a combination of either RAd TK+RAd HPRT or RAd 35+RAd HPRT or RAd 35+RAd TK was injected into the mid striatum of 9 rats (3 rats per group). The total vector dose was 8×10^7 iu (i.e. 4×10^7 iu per vector)."}
{"compound": "Nc1nc(O)c2ncn(COC(CO)CO)c2n1", "note": "[GCV, ganciclovir]", "values": [{"measurement": "Effect on the maintenance of HSV1-TK immunoreactivity in the rodent brain", "value": "no effect"}]}
